From US20190271703A1, “BIOMARKERS AND TREATMENTS FOR METASTATIC CANCER” (DUKE UNIVERSITY, priority 2016, published 2019) come the findings set out here.

This assay has as its system Pro-N-cadherin-positive and pro-N-cadherin-negative SUM159 sorted cells. In words: Clonogenic assay on pro-N-cadherin-sorted cells. Format: cell-based. As to conditions: docetaxel 50, 75, 100, 150 nM for 48 h; pro-N-cadherin positive vs negative population. As to the method:
Pro-N-cadherin-positive and pro-N-cadherin-negative SUM159 sorted cells were exposed to the indicated docetaxel concentrations and surviving fraction was determined in a clonogenic assay. Mean# colonies from three wells (+/−SEM) was determined for each cell population.
Pro-N-cadherin-positive and Pro-N-cadherin-negative populations were sorted from untreated SUM159 cells, seeded into 6 well plates ([…]) at varying cell densities, and incubated at 37° C., 5% C02 overnight. The next day, culture medium was removed and treatments were added [no treatment, Docetaxel (50 nM, 75 nM, 100 nM and 150 nM]. After 48 h, treatments were removed, cells were washed with HBSS, and fresh culture medium (lacking drug) was added. Every three days, culture medium was changed and plates were examined for colony formation. To stain colonies, plates were fixed in 10% Acetone/10% Methanol solution for 10 min. Colonies were stained with 2% Crystal Violet for 30 minutes. The plates are then washed with water and allowed to air dry. Plates were imaged on GelCount and colonies were counted with Image J.

For the compound `CC(=O)O[C@@]12CO[C@@H]1C[C@H](O)[C@@]1(C)C(=O)[C@H](O)C3=C(C)[C@@H](OC(=O)[C@H](O)[C@@H](NC(=O)OC(C)(C)C)c4ccccc4)C[C@@](O)([C@@H](OC(=O)c4ccccc4)[C@H]21)C3(C)C` [docetaxel], the “surviving fraction (relative resistance of sorted populations)” value is reported as “significantly more resistant”.
